# Source: patent US20150274634A1, “COMPOUNDS FOR THE TREATMENT OF OBESITY AND METHODS OF USE THEREOF” (The Children's Medical Center Corporation, priority 2014, published 2015)
# Key:
# [1] = weight loss products; cited from earlier work
# HFD-fed obese mice [2] = experiment: Liver and kidney histology (H&E); type: in vivo; details: 100 μg/kg i.p., three weeks
# [3] = test system: alanine transaminase (ALT); experiment: Serum ALT by ELISA; type: in vivo; details: HFD-fed obese mice; 100 μg/kg i.p., three weeks
# Protocol: (§1) To investigate the effect of celastrol administration on liver function, serum levels of alanine transaminase (ALT) and aspartate transaminase (AST) were measured in mice following three weeks of celastrol treatment (100 μg/kg, i.p.). ALT and AST were measured using an enzyme-linked immunosorbent assay (ELISA) kit (from Bio Scientific).
# [4] = test system: aspartate transaminase (AST); experiment: Serum AST by ELISA; type: in vivo; details: HFD-fed obese mice; 100 μg/kg i.p., three weeks
# Protocol: as §1
# mice = experiment: Locomotor activity (Comprehensive Lab Animal Monitoring System); type: in vivo
# Protocol: FIGS. 16A and 16B are graphs showing x (FIG. 16A) and y (FIG. 16B) direction ambulatory motion for control and celastrol in dark and light cycles. Toxicity was evaluated using Columbus Instruments Comprehensive Lab Animal Monitoring System we have measure the locomotor activity of the animals.
# Locomotor activity was also normal in celastrol-treated mice. This is consistent with celastrol not having a toxic effect causing anorexia and weight loss, since the latter would be associated with decreased locomotor activity.
# FIGS. 16A and 16B are graphs showing x (FIG. 16A) and y (FIG. 16B) direction ambulatory motion for control and celastrol in dark and light 2 cycles. Toxicity was evaluated using Columbus Instruments Comprehensive Lab Animal Monitoring System we have measure the locomotor activity of the animals.
# HFD-fed obese mice [5] = experiment: Leptin injection upon acute celastrol treatment, HFD-fed obese mice; type: in vivo; details: leptin 10 mg/kg i.p.
# Protocol: (§2) It was therefore hypothesized that celastrol exerts anti-obesity effects through increasing leptin sensitivity in the brains of the HFD-fed obese mice. To test this hypothesis, leptin was administered to celastrol- or vehicle-treated HFD-fed obese animals. To avoid any possible leptin sensitizing effect of weight loss or decreased food intake created by celastrol administration, leptin injections were carried out upon acute celastrol treatment as described below.
# (§3) Lean and HFD-fed obese mice were divided into four groups: 1) DMSO+saline, 2) DMSO+leptin, 3) celastrol+saline, and 4) celastrol+leptin (n=3 per group). Mice were injected (i.p.) with 100 μg/kg celastrol or vehicle (DMSO) one hour before dark cycle (day zero). 24 hours later, mice were injected for a second time with celastrol or DMSO (day 1), and all animals were then taken to 24 hour-fasting. On day two, at 21 hours of fasting, mice received a final injection of DMSO or celastrol. 30 minutes prior to dark cycle, at 23.5 hour of fasting, mice received a single i.p. injection of leptin (10 mg/kg, dissolved in saline), or saline. […] 1, 3, 6, 15, and 24-hour food intake and 24-hour body weight changes were recorded (FIG. 7A). […] This is clearly evident when food intake of the celastrol-treated mice is calculated in percent values (FIG. 7B). […]
# lean mice = experiment: Leptin injection upon acute celastrol treatment, lean mice; type: in vivo; details: 6-hour time point, leptin 10 mg/kg i.p., DMSO or celastrol 100 μg/kg i.p. pretreatment
# Protocol: as §2, §3
compound,measurement,setting,value
[Cr] [Chromium],Safety,[1],Likely safe
CC1=C(O)C(=O)C=C2C1=CC=C1[C@@]2(C)CC[C@@]2(C)[C@@H]3C[C@](C)(C(=O)O)CC[C@]3(C)CC[C@]12C [celastrol],kidney morphology,HFD-fed obese mice [2],no detectable change
same,serum ALT level,[3],decreases
same,serum AST level,[4],decreases
same,locomotor activity,mice; celastrol-treated mice,normal
same,x and y direction ambulatory motion counts,"mice; dark and light cycles, celastrol versus control",not significantly different
Conjugated linoleic acid [Conjugated linoleic acid (CLA)],Effectiveness,[1],Possibly effective
same,Safety,[1],Possibly safe
"leptin: peptide hormone, afferent signal in a negative feedback loop regulating food intake and body weight",decrease in food intake upon leptin injection,"HFD-fed obese mice [5]; 6-hour time point, DMSO or celastrol 100 μg/kg i.p. pretreatment",approximately 40%
same,24-hour body weight change,"HFD-fed obese mice [5]; 24 hour ad libitum feeding after 24-hour fasting, celastrol 100 μg/kg i.p.",resistant
same,decrease in food intake upon leptin injection,lean mice,approximately 40%
